Reference: patent EP0509845A1, “(+) and (-) enantiomers of 5-aliphatic-6-(benzoxazinyl- or benzothiazinyl)-2,3,4,5-tetrahydropyridazin-3-ones” (ORTHO PHARMACEUTICAL CORPORATION, priority 1991, dated 1992)

Tested on: adult mongrel dogs
Experiment: Comparative racemate and enantiomer hemodynamic testing in pentobarbital anesthetized open-chest dogs
Format: in vivo
Settings: for In vivo inotropic ED40, i.v.: Table I summary, dose increasing contractile force by 40%; for In vivo inotropic ED40, i.v. / CF ED40 (µg/kg) with 95% F.L.: dogs; for CO Percent Change from Control: cardiac output; for CO Percent Change from Control / CF Percent Change from Control / HR Percent Change from Control / LVEDP Percent Change from Control / MAP Percent Change from Control / dP/dtmax Percent Change from Control / RAP Percent Change from Control / SV Percent Change from Control / SW Percent Change from Control / TPR Percent Change from Control: anesthetized open-chest dogs; for CF Percent Change from Control: contractile force; for CF ED40 (µg/kg) with 95% F.L.: dose causing a 40% increase in contractility above baseline, from dose-response regression lines, i.v. infusion; for HR Percent Change from Control: heart rate; for LVEDP Percent Change from Control: left ventricular end diastolic pressure; for MAP Percent Change from Control: mean blood pressure; for dP/dtmax Percent Change from Control: peak rate of rise in left ventricular pressure; for RAP Percent Change from Control: right atrial pressure; for SV Percent Change from Control: stroke volume (CO/HR x 1000); for SW Percent Change from Control: stroke work; for TPR Percent Change from Control: total peripheral resistance
Protocol: Adult mongrel dogs weighing approximately l0-l4 kg were anesthetized with sodium pentobarbital (35 mg/kg, i.p.) and artificially respired. A femoral artery was cannulated to measure mean arterial pressure (MAP) and a femoral vein was cannulated for administering compounds. A Millar microtip pressure transducer was placed in the left ventricle via the left carotid artery to measure left ventricular end diastolic pressure (EDP). pressure pulses triggered a cardiotachometer for determination of heart rate (HR) while the left ventricular pressure waveform was differentiated using a Gould differentiating amplifier to yield dP/dtmax, an index of contractility. A right thoractomy was performed at the fourth intercostal space and the pericardial sac was opened. An externally calibrated Walton-Brodie strain gauge arch was sutured to the right ventricular free wall and stretched to produce a baseline force of approximately l00g. Subsequent changes in right ventricular contractile force (CF) were measured from this baseline. A Carolina electromagnetic flow probe was placed on the ascending aorta to estimate cardiac output (CO). A flexible fluid-filled catheter was inserted into the tip of the right atrium to measure right atrial pressure (RAP). Needle electrodes were placed in the appropriate limbs to record a lead II electrocardiogram (ECG). The following formulas were used to calculate derived parameters: Stroke volume (SV) = CO/HR x l000 Stroke work (SW) = ([…]) x SV Total peripheral resistance (TPR) = (MAP-EDP)/CO
Following surgery and stabilization of hemodynamic parameters, an i.v. infusion of dopamine (l0-l5 µg/kg/min for 3 min) was administered with a Harvard infusion pump to assess responsiveness to positive inotropic stimulation. Baseline hemodynamic values were obtained immediately prior to drug infusion. Responses were continuously monitored on a recorder (Gould 2800) and data collection was facilitated by the use of a Buxco cardiovascular analyzer and data logger.
In the comparative testing a stock solution of each enantiomer (l mg/ml) was prepared fresh daily and diluted before use. Compounds were dissolved in a small volume of dimethylformamide (DMF) and diluted with saline for a final concentration of l5% DMF. Further dilutions were made with a l5% DMF solution.
In the comparative testing each compound was administered in cumulative doses to separate dogs. Data were obtained at the end of each dose. (±) Bemoradan and (+) Bemordan were infused at cumulative doses of 5, l5, 35 and 75 µg/kg, administered with a Harvard infusion pump for 5 minutes each at rates of 0.56, l.l, 2.2, and […], respectively. (-) Bemoradan was given at doses of 5, l5 and 35 µg/kg following the same protocol. The high dose of the (-) isomer was not administered as a means of conserving compound.
Hemodynamic results were expressed as the percent change from pre-drug baseline values and compared using a Dunnett's test with a criterion for significance of p < 0.05. Contractile force ED₄₀ values (i.e., the dose which increased contractile force by 40%) were calculated from dose-response regression lines.

## CC1CC(=O)NN=C1c1ccc2c(c1)OCC(=O)N2 (single isomer, unassigned; isomer 6) [(+) isomer, 6-(3,4-dihydro-3-oxo-l,4(2H)-benzoxazin-7-yl)-2,3,4,5-tetrahydro-5-methyl-pyridazin-3-one]
  In vivo inotropic ED40, i.v.: 0.0423 mg/kg
  CF ED40 (µg/kg) with 95% F.L.: 42.3 (33.5 - 56.7) µg/kg
Cumulative i.v. dose 5 µg/kg
  CO Percent Change from Control: 2.0±1.4%
  CF Percent Change from Control: 4.3±2.7%
  HR Percent Change from Control: -0.7±0.8%
  LVEDP Percent Change from Control: -3.4±3.6%
  MAP Percent Change from Control: -1.4±1.1%
  dP/dtmax Percent Change from Control: 2.8±1.0%
  RAP Percent Change from Control: -10.6±8.5%
  SV Percent Change from Control: 2.5±0.7%
  SW Percent Change from Control: 0.7±1.3%
  TPR Percent Change from Control: -3.6±0.7%
Cumulative i.v. dose 15 µg/kg
  CO Percent Change from Control: 4.8±2.8%
  CF Percent Change from Control: 11.8±3.3%
  HR Percent Change from Control: 1.2±0.8%
  LVEDP Percent Change from Control: -4.9±4.8%
  MAP Percent Change from Control: -1.8±1.7%
  dP/dtmax Percent Change from Control: 7.3±1.8%
  RAP Percent Change from Control: -5.8±9.7%
  SV Percent Change from Control: 4.0±2.4%
  SW Percent Change from Control: 1.7±3.5%
  TPR Percent Change from Control: -6.6±1.7%
Cumulative i.v. dose 35 µg/kg
  CO Percent Change from Control: 10.6±5.9%
  CF Percent Change from Control: 29.5±5.2%
  HR Percent Change from Control: 4.5±1.0%
  LVEDP Percent Change from Control: -7.4±5.7%
  MAP Percent Change from Control: -2.2±2.2%
  dP/dtmax Percent Change from Control: 18.9±3.6%
  RAP Percent Change from Control: -4.2±8.4%
  SV Percent Change from Control: 6.8±6.1%
  SW Percent Change from Control: 4.4±7.3%
  TPR Percent Change from Control: -11.3±3.7%
Cumulative i.v. dose 75 µg/kg
  CO Percent Change from Control: 13.4±8.5%
  CF Percent Change from Control: 59.5±7.2%
  HR Percent Change from Control: 10.6±3.7%
  LVEDP Percent Change from Control: -11.2±7.1%
  MAP Percent Change from Control: -3.8±2.8%
  dP/dtmax Percent Change from Control: 37.0±6.4%
  RAP Percent Change from Control: -21.7±13.3%
  SV Percent Change from Control: 6.1±9.1%
  SW Percent Change from Control: 1.9±9.9%
  TPR Percent Change from Control: -14.4±5.3%

## CC1CC(=O)NN=C1c1ccc2c(c1)OCC(=O)N2 (single isomer, unassigned; isomer 6) [(-) isomer, 6-(3,4-dihydro-3-oxo-l,4(2H)-benzoxazin-7-yl)-2,3,4,5-tetrahydro-5-methyl-pyridazin-3-one]
(-) isomer versus (+) isomer
  Potency Difference (-vs+), In vivo inotropic ED40, i.v.: 7 x
  In vivo inotropic ED40, i.v.: 0.0057 mg/kg
  CF ED40 (µg/kg) with 95% F.L.: 5.7 (2.9 - 8.3) µg/kg
Cumulative i.v. dose 5 µg/kg
  CO Percent Change from Control: 2.9±0.5%
  CF Percent Change from Control: 28.3±4.4%
  HR Percent Change from Control: -3.1±0.5%
  LVEDP Percent Change from Control: -10.6±4.4%
  MAP Percent Change from Control: -7.4±3.4%
  dP/dtmax Percent Change from Control: 11.7±5.6%
  RAP Percent Change from Control: 3.8±11.4%
  SV Percent Change from Control: 0.06±0.9%
  SW Percent Change from Control: -7.8±4.2%
  TPR Percent Change from Control: -10.2±5.2%
Cumulative i.v. dose 15 µg/kg
  CO Percent Change from Control: 0.8±1.9%
  CF Percent Change from Control: 119.9±18.8%
  HR Percent Change from Control: 10.5±1.2%
  LVEDP Percent Change from Control: -20.7±5.1%
  MAP Percent Change from Control: -12.8±4.5%
  dP/dtmax Percent Change from Control: 41.6±12.3%
  RAP Percent Change from Control: -0.9±16.4%
  SV Percent Change from Control: -8.4±1.8%
  SW Percent Change from Control: -19.8±6.3%
  TPR Percent Change from Control: -12.8±7.5%
Cumulative i.v. dose 35 µg/kg
  CO Percent Change from Control: -3.4±2.4%
  CF Percent Change from Control: 187.2±28.9%
  HR Percent Change from Control: 17.1±3.6%
  LVEDP Percent Change from Control: -25.1±8.0%
  MAP Percent Change from Control: -18.7±4.3%
  dP/dtmax Percent Change from Control: 58.0±14.5%
  RAP Percent Change from Control: -1.4±16.0%
  SV Percent Change from Control: -15.2±4.0%
  SW Percent Change from Control: -29.7±7.7%
  TPR Percent Change from Control: -14.9±5.1%
